According to patent US11958813B2, “Uracil compound containing carboxylate fragment, preparation method therefor, and herbicidal composition and use thereof” (JIANGSU FLAG CHEMICAL INDUSTRY CO., LTD., priority 2021, dated 2024):

How the values were obtained:
Experiment in all cases: Greenhouse herbicidal activity test, post-emergence
Assay type in all cases: in vivo
Alopecurus japonicus = details: determined 21 days later; for inhibition at 7.5 g/ha / inhibition at 15 g/ha: Alopecurus japonicus, 504 h, read-out: fresh weight inhibition rate, Alopecurus japonicus
Description: (§1) A herbicidal activity test method for the compounds of the present invention was as follows:
(§2) Post-emergence: an appropriate quantity of seeds of gramineous weeds (Echinochloa crusgalli, Eleusine indica, Digitaria sanguinalis, Alopecurus japonicus, Beckmannia syzigachne, Leptochloa chinensis, Polypogon fugax, Alopecurus aequalis, Lolium multiflorum, and Poa annua), broad-leaved weeds (Eclipta prostrata, Amaranthus retroflexus, Brassica juncea, Malachium aquaticum, Conyza canadensis, and Sesbania cannabina), and Cyperus iria were sown in plastic pots having a diameter of 7 cm and holes at the bottom and filled with nutrient soil (sandy soil, pH 6.1, organic matter 1%) respectively, the seeds were covered with an appropriate amount of soil after being sown, then the soil was wetted with water from the bottom, the seeds were cultured in a constant-temperature illuminated culture room until a 2-4 leaf stage, and stems and leaves underwent spray treatment. After the treatment, the test materials were placed in a laboratory and cultured in the constant-temperature illuminated culture room after the liquid was naturally dry in the shade, and results were determined 21 days later.
(§3) According to the foregoing test method, a parallel experiment was carried out on herbicidal activities of some compounds of the general formula (I), the compound Butafenacil (compound 47 in the patent specification) specifically disclosed in U.S. Pat. No. 5,183,492A, and the compound CK (compound 1 in the patent specification) specifically disclosed in U.S. Pat. No. 5,183,492A, at application doses of 7.5 g a.i./ha and 15 g a.i./ha.

Polypogon fugax = details: determined 21 days later; for inhibition at 7.5 g/ha / inhibition at 15 g/ha: Polypogon fugax, 504 h, read-out: fresh weight inhibition rate, Polypogon fugax
Description: as §1, §2, §3

Sesbania cannabina = details: determined 21 days later; for inhibition at 7.5 g/ha / inhibition at 15 g/ha: Sesbania cannabina, 504 h, read-out: fresh weight inhibition rate, Sesbania cannabina
Description: as §1, §2, §3

C=CCOC(=O)C(C)(C)OC(=O)c1cc(-n2c(=O)cc(C(F)(F)F)n(C)c2=O)ccc1Cl [Butafenacil, reference compound]
inhibition at 7.5 g/ha (Alopecurus japonicus; dose 7.5 g a.i./ha): < 55%
inhibition at 15 g/ha (Alopecurus japonicus; dose 15 g a.i./ha): < 55%
inhibition at 7.5 g/ha (Polypogon fugax; dose 7.5 g a.i./ha): < 55%
inhibition at 15 g/ha (Polypogon fugax; dose 15 g a.i./ha): 55 to 70%
inhibition at 7.5 g/ha (Sesbania cannabina; dose 7.5 g a.i./ha): 55 to 70%
inhibition at 15 g/ha (Sesbania cannabina; dose 15 g a.i./ha): 70 to 85%

COC(=O)C(C)OC(=O)c1cc(-n2c(=O)cc(C(F)(F)F)n(C)c2=O)c(F)cc1Cl (stereo not drawn) [CK, reference compound]
inhibition at 7.5 g/ha (Alopecurus japonicus; dose 7.5 g a.i./ha): < 55%
inhibition at 15 g/ha (Alopecurus japonicus; dose 15 g a.i./ha): 55 to 70%
inhibition at 7.5 g/ha (Polypogon fugax; dose 7.5 g a.i./ha): < 55%
inhibition at 15 g/ha (Polypogon fugax; dose 15 g a.i./ha): 55 to 70%
inhibition at 7.5 g/ha (Sesbania cannabina; dose 7.5 g a.i./ha): 55 to 70%
inhibition at 15 g/ha (Sesbania cannabina; dose 15 g a.i./ha): 70 to 85%

COCCOC(=O)COC(=O)c1cc(-n2c(=O)cc(C(F)(F)F)n(C)c2=O)c(F)cc1Cl [Compound 3]
fresh weight inhibition rate, Alopecurus japonicus (Alopecurus japonicus; dose 7.5 g a.i./ha): B (B indicates that the inhibition rate was greater than or equal to 70% to less than 85%)
fresh weight inhibition rate, Alopecurus japonicus (Alopecurus japonicus; dose 15 g a.i./ha): A (A indicates that the inhibition rate was greater than or equal to 85% to 100%)
fresh weight inhibition rate, Polypogon fugax (Polypogon fugax; dose 7.5 g a.i./ha): B (B indicates that the inhibition rate was greater than or equal to 70% to less than 85%)
fresh weight inhibition rate, Polypogon fugax (Polypogon fugax; dose 15 g a.i./ha): A (A indicates that the inhibition rate was greater than or equal to 85% to 100%)
fresh weight inhibition rate, Sesbania cannabina (Sesbania cannabina; dose 7.5 g a.i./ha): A (A indicates that the inhibition rate was greater than or equal to 85% to 100%)
fresh weight inhibition rate, Sesbania cannabina (Sesbania cannabina; dose 15 g a.i./ha): A (A indicates that the inhibition rate was greater than or equal to 85% to 100%)

COCCOC(=O)C(C)(C)OC(=O)c1cc(-n2c(=O)cc(C(F)(F)F)n(C)c2=O)c(F)cc1Cl [Compound 207]
fresh weight inhibition rate, Alopecurus japonicus (Alopecurus japonicus; dose 7.5 g a.i./ha): A (A indicates that the inhibition rate was greater than or equal to 85% to 100%)
fresh weight inhibition rate, Alopecurus japonicus (Alopecurus japonicus; dose 15 g a.i./ha): A (A indicates that the inhibition rate was greater than or equal to 85% to 100%)
fresh weight inhibition rate, Polypogon fugax (Polypogon fugax; dose 7.5 g a.i./ha): A (A indicates that the inhibition rate was greater than or equal to 85% to 100%)
fresh weight inhibition rate, Polypogon fugax (Polypogon fugax; dose 15 g a.i./ha): A (A indicates that the inhibition rate was greater than or equal to 85% to 100%)
fresh weight inhibition rate, Sesbania cannabina (Sesbania cannabina; dose 7.5 g a.i./ha): A (A indicates that the inhibition rate was greater than or equal to 85% to 100%)
fresh weight inhibition rate, Sesbania cannabina (Sesbania cannabina; dose 15 g a.i./ha): A (A indicates that the inhibition rate was greater than or equal to 85% to 100%)

C=CCOCCOC(=O)C(C)(C)OC(=O)c1cc(-n2c(=O)cc(C(F)(F)F)n(C)c2=O)c(F)cc1Cl [Compound 214]
fresh weight inhibition rate, Alopecurus japonicus (Alopecurus japonicus; dose 7.5 g a.i./ha): A (A indicates that the inhibition rate was greater than or equal to 85% to 100%)
fresh weight inhibition rate, Alopecurus japonicus (Alopecurus japonicus; dose 15 g a.i./ha): A (A indicates that the inhibition rate was greater than or equal to 85% to 100%)
fresh weight inhibition rate, Polypogon fugax (Polypogon fugax; dose 7.5 g a.i./ha): A (A indicates that the inhibition rate was greater than or equal to 85% to 100%)
fresh weight inhibition rate, Polypogon fugax (Polypogon fugax; dose 15 g a.i./ha): A (A indicates that the inhibition rate was greater than or equal to 85% to 100%)
fresh weight inhibition rate, Sesbania cannabina (Sesbania cannabina; dose 7.5 g a.i./ha): A (A indicates that the inhibition rate was greater than or equal to 85% to 100%)
fresh weight inhibition rate, Sesbania cannabina (Sesbania cannabina; dose 15 g a.i./ha): A (A indicates that the inhibition rate was greater than or equal to 85% to 100%)

COCCOC(=O)C1(OC(=O)c2cc(-n3c(=O)cc(C(F)(F)F)n(C)c3=O)c(F)cc2Cl)CC1 [Compound 258]
fresh weight inhibition rate, Alopecurus japonicus (Alopecurus japonicus; dose 7.5 g a.i./ha): A (A indicates that the inhibition rate was greater than or equal to 85% to 100%)
fresh weight inhibition rate, Alopecurus japonicus (Alopecurus japonicus; dose 15 g a.i./ha): A (A indicates that the inhibition rate was greater than or equal to 85% to 100%)
fresh weight inhibition rate, Polypogon fugax (Polypogon fugax; dose 7.5 g a.i./ha): A (A indicates that the inhibition rate was greater than or equal to 85% to 100%)
fresh weight inhibition rate, Polypogon fugax (Polypogon fugax; dose 15 g a.i./ha): A (A indicates that the inhibition rate was greater than or equal to 85% to 100%)
fresh weight inhibition rate, Sesbania cannabina (Sesbania cannabina; dose 7.5 g a.i./ha): A (A indicates that the inhibition rate was greater than or equal to 85% to 100%)
fresh weight inhibition rate, Sesbania cannabina (Sesbania cannabina; dose 15 g a.i./ha): A (A indicates that the inhibition rate was greater than or equal to 85% to 100%)
